Reference: publication PMC8991007, “Benzylic Dehydroxylation of Echinocandin Antifungal Drugs Restores Efficacy against Resistance Conferred by Mutated Glucan Synthase” (Journal of the American Chemical Society, 2022)
Values after ≈ are worked out from the molar mass of the structure shown. *1 amine or outer side, *2 acyl side, *3 side chain or, on linkers, in order; H or OH if unused. Where a SMILES comes first, the peptide text is derived from it. Bridges are numbered along the chain shown (N, C = ends). [ ]: non-standard residue; d: D form. The star is where a group is joined. hTyr(3S-OH,4S-OH,3'-OSO3H) = N[C@H](C(=O)O)[C@H](O)[C@@H](O)c1ccc(O)c(OS(=O)(=O)O)c1; Orn(4R-OH,5R-OH) = O=C([C@H](C[C@@H](O)[C@@H](O)N[*:3])N[*:1])[*:2]; Pro(3S-OH,4S-Me) = C[C@H]1CN[C@H](C(=O)O)[C@H]1O; X1 = CCCCCOc1ccc(-c2cc(-c3ccc(C(=O)*)cc3)no2)cc1; Gln(3R-OH) = NC(=O)C[C@@H](O)[C@H](N)C(=O)O; Hyp = O=C(O)[C@@H]1C[C@@H](O)CN1

Columns and labels:
[1] = test system: C. albicans; assay: Minimum inhibitory concentration broth double-dilution assay; type: cell-based, Candida albicans; conditions: 24 h, 30 °C
Method: (§1) The antifungal activities of compounds 1 and 2 were evaluated against a panel of 50 strains of C. albicans and C. glabrata (Table S4), including echinocandin-resistant strains that were constructed by introducing mutations within and near the defined hotspots in the FKS1 and/or FKS2 genes.[27] To evaluate antifungal activity, we determined MIC values. The MIC was defined as the lowest drug concentration that led to turbidity (measured at 600 nm) of less than or equal to 35% of that of the untreated culture. As controls, we tested CSF, MCF, ANF, and RZF.
(§2) All of the tested compounds were dissolved in anhydrous DMSO to a concentration of 5 mg/mL. Candida strains were streaked from a glycerol stock onto YPAD agar plates and grown for 24 h at 30 °C. Colonies were suspended in 1 mL of PBS and diluted to an O.D. of 0.01 at 600 nm with YPAD broth and added into flat-bottom 96-well microplates (Corning) containing a gradient of twofold dilutions per tested compound with concentrations ranging from 64 to 0.0009 μg/mL. Control wells with no drug and blank wells without yeast cells containing YPAD only were also prepared. […] Each concentration was tested in triplicate, and results were confirmed by at least two independent sets of experiments.

[2] = test system: C. glabrata; assay: as above; type: cell-based, Candida glabrata; conditions: 24 h, 30 °C
Method: as §1, §2

[3] = #2 C. albicans DPL1015 (DP-A15)
[4] = #3 C. albicans DPL1016 (DP-A15-10)

SMILES | MIC ([1]; #1 C. albicans Sc5314) | MIC [1, 3] | MIC [1, 4] | MIC ([1]; #4 C. albicans T-2068 (DP-C42)) | MIC ([1]; #5 C. albicans T-2069 (DP-85)) | MIC ([1]; #6 C. albicans (DP-89)) | MIC ([1]; #7 C. albicans T-2076 (DP-194)) | MIC ([1]; #8 C. albicans T-2077 (DP-205)) | MIC ([2]; #9 C. glabrata EF1620) | MIC ([2]; #10 C. glabrata TGL00277) | MIC ([2]; #11 C. glabrata TGL00275) | MIC ([2]; #12 C. glabrata CST78) | MIC ([2]; #13 C. glabrata TGL00265) | MIC ([2]; #14 C. glabrata TGL00264) | MIC ([2]; #15 C. glabrata TGL00263) | MIC ([2]; #16 C. glabrata TGL00065) | MIC ([2]; #17 C. glabrata CST34) | MIC ([2]; #18 C. glabrata TGL00258) | MIC ([2]; #19 C. glabrata TGL00256) | MIC ([2]; #20 C. glabrata TGL00107) | further results
CC[C@H](C)C[C@H](C)CCCCCCCCC(=O)N[C@H]1C[C@@H](O)[C@@H](NCCN)NC(=O)[C@@H]2[C@@H](O)CCN2C(=O)[C@H]([C@H](O)CCN)NC(=O)[C@H]([C@H](O)[C@@H](O)c2ccc(O)cc2)NC(=O)[C@@H]2C[C@@H](O)CN2C(=O)[C@H]([C@@H](C)O)NC1=O [CSF, caspofungin] | 0.015 µg/mL (≈ 0.0137 µM) | 1 µg/mL (≈ 0.915 µM) | > 64 µg/mL | 32 µg/mL (≈ 29.3 µM) | 16 µg/mL (≈ 14.6 µM) | > 64 µg/mL | 1 µg/mL (≈ 0.915 µM) | 16 µg/mL (≈ 14.6 µM) | 0.031 µg/mL (≈ 0.0284 µM) | > 64 µg/mL | 32 µg/mL (≈ 29.3 µM) | 0.015 µg/mL (≈ 0.0137 µM) | > 64 µg/mL | 4 µg/mL (≈ 3.66 µM) | 64 µg/mL (≈ 58.5 µM) | > 64 µg/mL | 0.015 µg/mL (≈ 0.0137 µM) | > 64 µg/mL | 16 µg/mL (≈ 14.6 µM) | > 64 µg/mL | MIC ([2]; #21 C. glabrata TGL00056): > 64 µg/mL; MIC ([2]; #22 C. glabrata M12): 0.015 µg/mL (≈ 0.0137 µM); MIC ([2]; #23 C. glabrata TGL00270): > 64 µg/mL; MIC ([2]; #24 C. glabrata TGL00269): 16 µg/mL (≈ 14.6 µM); MIC ([2]; #25 C. glabrata TGL00268): > 64 µg/mL; MIC ([2]; #26 C. glabrata TGL00268): > 64 µg/mL; MIC ([2]; #27 C. glabrata EB0911): 0.031 µg/mL (≈ 0.0284 µM); MIC ([2]; #28 C. glabrata TGL00261): > 64 µg/mL; MIC ([2]; #29 C. glabrata TGL00109): 64 µg/mL (≈ 58.5 µM); MIC ([2]; #30 C. glabrata TGL00259): > 64 µg/mL
CCCCCOc1ccc(-c2cc(-c3ccc(C(=O)N[C@H]4C[C@@H](O)[C@@H](O)NC(=O)[C@@H]5[C@@H](O)[C@@H](C)CN5C(=O)[C@H]([C@H](O)CC(N)=O)NC(=O)[C@H]([C@H](O)[C@@H](O)c5ccc(O)c(OS(=O)(=O)O)c5)NC(=O)[C@@H]5C[C@@H](O)CN5C(=O)[C@H]([C@@H](C)O)NC4=O)cc3)no2)cc1 [MCF, micafungin] (X1-[Orn(4R-OH,5R-OH)]T[Hyp][hTyr(3S-OH,4S-OH,3'-OSO3H)][Gln(3R-OH)][Pro(3S-OH,4S-Me)]; lactam 1-C) | 0.031 µg/mL (≈ 0.0244 µM) | 1 µg/mL (≈ 0.787 µM) | 16 µg/mL (≈ 12.6 µM) | 4 µg/mL (≈ 3.15 µM) | 2 µg/mL (≈ 1.57 µM) | 4 µg/mL (≈ 3.15 µM) | 1 µg/mL (≈ 0.787 µM) | 2 µg/mL (≈ 1.57 µM) | 0.015 µg/mL (≈ 0.0118 µM) | 8 µg/mL (≈ 6.3 µM) | 2 µg/mL (≈ 1.57 µM) | 0.004 µg/mL (≈ 0.00315 µM) | 1 µg/mL (≈ 0.787 µM) | > 64 µg/mL | 0.125 µg/mL (≈ 0.0984 µM) | 32 µg/mL (≈ 25.2 µM) | 0.002 µg/mL (≈ 0.00157 µM) | > 64 µg/mL | 0.125 µg/mL (≈ 0.0984 µM) | > 64 µg/mL | MIC ([2]; #21 C. glabrata TGL00056): > 64 µg/mL; MIC ([2]; #22 C. glabrata M12): 0.002 µg/mL (≈ 0.00157 µM); MIC ([2]; #23 C. glabrata TGL00270): 16 µg/mL (≈ 12.6 µM); MIC ([2]; #24 C. glabrata TGL00269): 0.125 µg/mL (≈ 0.0984 µM); MIC ([2]; #25 C. glabrata TGL00268): > 64 µg/mL; MIC ([2]; #26 C. glabrata TGL00268): > 64 µg/mL; MIC ([2]; #27 C. glabrata EB0911): 0.008 µg/mL (≈ 0.0063 µM); MIC ([2]; #28 C. glabrata TGL00261): 4 µg/mL (≈ 3.15 µM); MIC ([2]; #29 C. glabrata TGL00109): > 64 µg/mL; MIC ([2]; #30 C. glabrata TGL00259): 32 µg/mL (≈ 25.2 µM)
